Laboratory results from PubChem BioAssay (NCI).
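Briefly, cells in 96-well plates were exposed to five compound concentrations for 48 h, and endpoints were estimated by linear interpolation. GI50: concentration for 50% inhibition of growth. At the TGI there is no net growth.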

Assays:
Assay in all cases: inhibition of tumour cell growth, NCI panel, 48 h
SF-295 CNS = tested on: SF-295 CNS
M14 melanoma = tested on: M14 melanoma
NCI-H460 lung = tested on: NCI-H460 lung
BT-549 breast = tested on: BT-549 breast
MDA-MB-231 breast = tested on: MDA-MB-231 breast
NCI-H226 lung = tested on: NCI-H226 lung
LOX IMVI melanoma = tested on: LOX IMVI melanoma
CAKI-1 renal = tested on: CAKI-1 renal
HOP-92 NSCLC = tested on: HOP-92 NSCLC
SK-OV-3 ovarian = tested on: SK-OV-3 ovarian
HS 578T breast = tested on: HS 578T breast
A498 renal = tested on: A498 renal
HOP-62 NSCLC = tested on: HOP-62 NSCLC
UO-31 renal = tested on: UO-31 renal
UACC-62 melanoma = tested on: UACC-62 melanoma
RXF 393 renal = tested on: RXF 393 renal
UACC-257 melanoma = tested on: UACC-257 melanoma
NCI-H23 lung = tested on: NCI-H23 lung
SK-MEL-5 melanoma = tested on: SK-MEL-5 melanoma
HCT-116 colon = tested on: HCT-116 colon
TK-10 renal = tested on: TK-10 renal
786-0 renal = tested on: 786-0 renal
SK-MEL-28 melanoma = tested on: SK-MEL-28 melanoma
MALME-3M melanoma = tested on: MALME-3M melanoma
NCI/ADR-RES ovarian = tested on: NCI/ADR-RES ovarian
A549 NSCLC = tested on: A549 NSCLC
SR leukemia = tested on: SR leukemia
CCRF-CEM leukemia = tested on: CCRF-CEM leukemia
OVCAR-8 ovarian = tested on: OVCAR-8 ovarian
PC-3 prostate = tested on: PC-3 prostate
IGROV1 ovarian = tested on: IGROV1 ovarian
OVCAR-5 ovarian = tested on: OVCAR-5 ovarian
SF-268 CNS = tested on: SF-268 CNS
ACHN renal = tested on: ACHN renal
SN12C renal = tested on: SN12C renal
U251 CNS = tested on: U251 CNS
DU-145 prostate = tested on: DU-145 prostate
KM12 colon = tested on: KM12 colon
MDA-MB-435 = tested on: MDA-MB-435
EKVX NSCLC = tested on: EKVX NSCLC
T-47D breast = tested on: T-47D breast
SF-539 CNS = tested on: SF-539 CNS
SNB-19 CNS = tested on: SNB-19 CNS
HT29 colon = tested on: HT29 colon
RPMI-8226 leukemia = tested on: RPMI-8226 leukemia
SNB-75 CNS = tested on: SNB-75 CNS
HL-60(TB) leukemia = tested on: HL-60(TB) leukemia
COLO 205 colon = tested on: COLO 205 colon
MOLT-4 leukemia = tested on: MOLT-4 leukemia
K-562 leukemia = tested on: K-562 leukemia
NCI-H522 lung = tested on: NCI-H522 lung
OVCAR-4 ovarian = tested on: OVCAR-4 ovarian

O=C1c2c(c3c4cc(Br)ccc4[nH]c3c3ccc4ccccc4c23)C(=O)N1CCN1CCNCC1
GI50 (SF-295 CNS): 13.9 µM | TGI (SF-295 CNS): 32.9 µM | GI50 (M14 melanoma): 10.7 µM | TGI (M14 melanoma): 25.7 µM | GI50 (NCI-H460 lung): 2.38 µM | TGI (NCI-H460 lung): 10.2 µM | GI50 (BT-549 breast): 13.1 µM | TGI (BT-549 breast): 30.7 µM | GI50 (MDA-MB-231 breast): 2.34 µM | TGI (MDA-MB-231 breast): 6.32 µM | GI50 (NCI-H226 lung): 10.8 µM | TGI (NCI-H226 lung): 39.5 µM | GI50 (LOX IMVI melanoma): 2.06 µM | TGI (LOX IMVI melanoma): 5.3 µM | GI50 (CAKI-1 renal): 10.5 µM | TGI (CAKI-1 renal): 24.6 µM | GI50 (HOP-92 NSCLC): 14.4 µM | TGI (HOP-92 NSCLC): 28.7 µM | GI50 (SK-OV-3 ovarian): 16.2 µM | TGI (SK-OV-3 ovarian): 30.8 µM | GI50 (HS 578T breast): 17.9 µM | TGI (HS 578T breast): 52.4 µM | GI50 (A498 renal): 16.1 µM | TGI (A498 renal): 29.8 µM | GI50 (HOP-62 NSCLC): 6.28 µM | TGI (HOP-62 NSCLC): 26.9 µM | GI50 (UO-31 renal): 11.2 µM | TGI (UO-31 renal): 27.2 µM | GI50 (UACC-62 melanoma): 12.8 µM | TGI (UACC-62 melanoma): 31.3 µM | GI50 (RXF 393 renal): 6.97 µM | TGI (RXF 393 renal): 23.4 µM | GI50 (UACC-257 melanoma): 12.9 µM | TGI (UACC-257 melanoma): 28.4 µM | GI50 (NCI-H23 lung): 2.96 µM | TGI (NCI-H23 lung): 12.7 µM | GI50 (SK-MEL-5 melanoma): 18.1 µM | TGI (SK-MEL-5 melanoma): 38 µM | GI50 (HCT-116 colon): 1.73 µM | TGI (HCT-116 colon): 3.13 µM | GI50 (TK-10 renal): 19.8 µM | TGI (TK-10 renal): 38.1 µM | GI50 (786-0 renal): 2.94 µM | TGI (786-0 renal): 9.44 µM | GI50 (SK-MEL-28 melanoma): 15.7 µM | TGI (SK-MEL-28 melanoma): 35.1 µM | GI50 (MALME-3M melanoma): 14.3 µM | TGI (MALME-3M melanoma): 36.3 µM | GI50 (NCI/ADR-RES ovarian): 3.66 µM | TGI (NCI/ADR-RES ovarian): 26.7 µM | GI50 (A549 NSCLC): 2.6 µM | TGI (A549 NSCLC): 9.13 µM | GI50 (SR leukemia): 0.507 µM | TGI (SR leukemia): 2.79 µM | GI50 (CCRF-CEM leukemia): 0.947 µM | TGI (CCRF-CEM leukemia): 6.8 µM | GI50 (OVCAR-8 ovarian): 1.96 µM | TGI (OVCAR-8 ovarian): 5 µM | GI50 (PC-3 prostate): 2.91 µM | TGI (PC-3 prostate): 11 µM | GI50 (IGROV1 ovarian): 11.8 µM | TGI (IGROV1 ovarian): 33.7 µM | GI50 (OVCAR-5 ovarian): 2.88 µM | TGI (OVCAR-5 ovarian): 9.14 µM | GI50 (SF-268 CNS): 12.3 µM | TGI (SF-268 CNS): 36.3 µM | GI50 (ACHN renal): 11.1 µM | TGI (ACHN renal): 27.4 µM | GI50 (SN12C renal): 13.5 µM | TGI (SN12C renal): 36.6 µM | GI50 (U251 CNS): 1.49 µM | TGI (U251 CNS): 2.86 µM | GI50 (DU-145 prostate): 2.09 µM | TGI (DU-145 prostate): 4.53 µM | GI50 (KM12 colon): 3.21 µM | TGI (KM12 colon): 11.6 µM | GI50 (MDA-MB-435): 3.12 µM | TGI (MDA-MB-435): 10.8 µM | GI50 (EKVX NSCLC): 1.98 µM | TGI (EKVX NSCLC): 4.96 µM | GI50 (T-47D breast): 4.3 µM | TGI (T-47D breast): 26 µM | GI50 (SF-539 CNS): 1.92 µM | TGI (SF-539 CNS): 3.82 µM | GI50 (SNB-19 CNS): 1.8 µM | TGI (SNB-19 CNS): 3.79 µM | GI50 (HT29 colon): 1.64 µM | TGI (HT29 colon): 3.11 µM | GI50 (RPMI-8226 leukemia): 2.19 µM | TGI (RPMI-8226 leukemia): 5.26 µM | GI50 (SNB-75 CNS): 18.3 µM | TGI (SNB-75 CNS): 35.5 µM | GI50 (HL-60(TB) leukemia): 6.78 µM | TGI (HL-60(TB) leukemia): 26 µM | GI50 (COLO 205 colon): 6.51 µM | TGI (COLO 205 colon): 27.7 µM | GI50 (MOLT-4 leukemia): 1.04 µM | TGI (MOLT-4 leukemia): 4.14 µM | GI50 (K-562 leukemia): 1.28 µM | TGI (K-562 leukemia): 3.05 µM | GI50 (NCI-H522 lung): 1.67 µM | TGI (NCI-H522 lung): 7.46 µM | GI50 (OVCAR-4 ovarian): 12.3 µM | TGI (OVCAR-4 ovarian): 33.9 µM
